Assay results as given in patent US7956072B2, “Agent for repairing corneal sensitivity containing amide compound” (Senju Pharmaceutical Co., Ltd., priority 2004, dated 2011).
Entries after “also recorded” stand apart in the source; their conditions may differ.

Legend:
[1] = tested on: cultured rabbit trigeminal nerve cells; experiment: Promoting effect on neuritogenesis in cultured rabbit trigeminal nerve cell; type: cell-based; details: compound 1 final concentration 1 μM, 48 hr of culture
Description: Japanese White rabbits (2-3 days old) purchased from KITAYAMA LABES Co., Ltd. were used.
The trigeminal nerve cell was isolated according to the report of Chan et al. (Chan, Kuan Y. and Haschke, Richard H., Exp. Eye Res., 41: 687-699, 1985). To be specific, under ether anesthesia, after cardiac perfusion with saline, the trigeminal ganglia was removed, dispersed using a nerve dispersion solution (SUMITOMO BAKELITE Co., Ltd.) to give a cell suspension. […]
After 48 hr of culture, the cells were fixed with 4% paraformaldehyde at room temperature for 2 hr, and nerve cell body and neurite were fluorescence stained using an anti-neurofilament 200 antibody (Sigma) that specifically recognizes neurofilaments which are intermediate filaments specific to a nerve cell and a fluorescent secondary antibody reactive therewith.
The stained cells were imported as images from a fluorescence microscope into a computer and the cell body diameter and neurite length of the imported cell images were measured using an image analysis software (Image-Pro Plus ver. 4.0, Planetron. Inc.). The cells of 3 wells were measured for each of the compound 1 addition group and the control group. The cells having a neurite with a length of not less than twice the diameter of a cell body were taken as neuritogenetic cells, and the percentage (%) of the neuritogenetic cells in the total cells measured was calculated.

[2] = tested on: rabbit corneal hyposensitivity model; experiment: Improving effect on rabbit corneal hyposensitivity using microkeratome (corneal flap model, Cochet-Bonnet corneal sensitivity meter); type: in vivo; details: 0.01% instillation; for recovery of corneal sensitivity relative to control group: 50 μL 4 times a day for 1 week or 2 weeks after corneal flap preparation, measured weekly 1 to 8 weeks postsurgery, hydrochloride
Procedure: Japanese white rabbits (body weight 2.5-3.0 kg) purchased from Japan SLC were used. The animals were housed separately in cages in a room set to room temperature 23±3° C., humidity 55±10%, 12 hr light cycle (light on 8 am, light off on 8 pm) from arrival to the end of the test. A limited amount of a solid feed (Labo R-stock, Nosan Corporation, 100 g for one day) was given to the animals and a free access to tap water was allowed.
As the test substance, compound 1 was used. Compound 1 was dissolved in the following base solution to 0.01% and administered by instillation. The base solution was administered to the control group by instillation.
Prior to the start of the test, the anterior segment of eye of the animal was visually observed and cornea stained marks by fluorescein was observed, and the rabbits showing no abnormality in them were selected. Using Cochet-Bonnet corneal sensitivity meter (manufactured by LUNEAU), the initial value of corneal sensitivity was measured.
Intramuscular injection (0.9 mL/kg) of a Celactal (2% xylazine):Ketalar (5% ketamine)=0.5:1 mixture was given to the animals to perform systemic anesthesia, and the eyeball was sufficiently exposed. Using microkeratome (MK2000, Nidek) attached a rabbit eye adaptor inside a suction ring, a corneal flap (diameter 8.5 mm) was prepared with a 130 μm thick blade (Arbelaez M C. et al., J. Refract Surg., 2002 May-Jun. 18 (3 Suppl): S357-60). The corneal flap was certainly put back into position under a microscope, and the animal was woken up from the anesthesia while observing the animal to prevent displacement of the flap. […]
The corneal sensitivity was measured using a Cochet-Bonnet corneal sensitivity meter once every week from one to eight weeks after the surgery. […]
For statistical analysis, a parametric Dunnett multiple comparisons test (one sided) (SAS preclinical package; Version 5.0, SAS Institute Japan) was used and a risk of less than 5% was evaluated as significant.

## C[C@@H](N)c1ccc(C(=O)Nc2ccnc3[nH]ccc23)cc1.Cl [compound 1, (R)-(+)-N-(1H-pyrrolo[2,3-b]pyridin-4-yl)-4-(1-aminoethyl)benzamide 1 hydrochloride]
[1]; anti-neurofilament 200 staining, hydrochloride
  neuritogenesis of cultured trigeminal nerve cells (fluorescence microscope observation): many cells having a long-extended neurite were observed; also recorded: promotes neuritogenesis
[1]; N=3, mean, control group 24%, p<0.001 vs control
  percentage (%) of the neuritogenetic cells in the total cells measured: 54.6%
[2]; 1-week administration group, at 5 week postsurgery, Dunnett test, p<0.05
  corneal sensitivity compared to control group (statistical analysis): significantly high
[2]
  recovery of corneal sensitivity relative to control group: has an effect of promoting the recovery of corneal hyposensitivity
[2]; listed as test substance
  recovery of corneal sensitivity relative to control group: better recovery of corneal sensitivity than in the control group
